Measurements taken from patent publication US10745377B2, “Piperidine or piperazine linked imidazole and triazole derivatives and methods of use” (MERCK SHARP & DOHME CORP., priority 2013, dated 2020).

Key:
Type in all cases: biochemical
[1] = target: T1, CYP2C9 (Homo sapiens, UniProt P11712); assay: Cocktail assay for CYPs in human liver microsomes: CYP2C9 (diclofenac 4′-hydroxylation); conditions: human liver microsomes 0.1 mg/mL, 5 μM diclofenac, 10 min at 37° C., 6 concentrations up to 10 μM; read-out: IC50 (nM) CYP2C9
T1 construct: 0.1 mg/mL protein human liver microsomes (BD Gentest); tissue BD Gentest; host or cells: human liver microsomes

[2] = target: T2, CYP1A2 (Homo sapiens, UniProt P05177); assay: Cocktail assay for CYPs in human liver microsomes: CYP1A2 (phenacetin O-deethylation); conditions: human liver microsomes 0.1 mg/mL, 10 μM phenacetin, 10 min at 37° C., 6 concentrations up to 10 μM; read-out: IC50 (nM) CYP1A2
T2 construct: 0.1 mg/mL protein human liver microsomes (BD Gentest); tissue BD Gentest; host or cells: human liver microsomes
T2 sequence (P05177 1-516): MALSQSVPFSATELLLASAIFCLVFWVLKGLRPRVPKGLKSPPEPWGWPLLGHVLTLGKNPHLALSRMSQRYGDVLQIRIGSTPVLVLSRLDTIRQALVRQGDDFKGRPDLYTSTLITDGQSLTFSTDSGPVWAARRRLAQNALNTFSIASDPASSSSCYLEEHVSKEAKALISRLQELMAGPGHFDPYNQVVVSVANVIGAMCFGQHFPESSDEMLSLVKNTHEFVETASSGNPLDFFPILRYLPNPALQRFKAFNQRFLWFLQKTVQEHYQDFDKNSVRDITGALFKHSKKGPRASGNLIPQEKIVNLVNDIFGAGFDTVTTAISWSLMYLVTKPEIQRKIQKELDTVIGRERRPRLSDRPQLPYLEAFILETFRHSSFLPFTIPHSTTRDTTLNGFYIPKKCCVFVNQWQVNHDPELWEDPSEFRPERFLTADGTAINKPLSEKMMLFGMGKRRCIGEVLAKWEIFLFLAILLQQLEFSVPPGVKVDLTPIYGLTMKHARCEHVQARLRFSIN
Description: (§1) Determination of IC50 in a Cocktail Assay for CYPs 1A2, 2C9, 2C19, 2D6 and 3A4
(§2) This assay was performed in a standard 96-well plate design. […] The incubation substrate mix contains 10 μM phenacetin (1A2), 5 μM diclofenac (2C9), 30 μM mephenytoin (2C19), 5 μM dextromethorphan (2D6) and 2 μM midazolam (3A4), 0.1 mg/mL protein human liver microsomes (BD Gentest), 1 mM NAPDH, 3.3 mM MgCl2 and 100 mM potassium phosphate buffer (pH 7.4). The production of the metabolite of each probe substrate was determined after incubation for 10 min at 37° C. Quantitation of the metabolite peak area ratio against an internal standard (tolbutamide) was determined by LC/MS/MS analysis following acetonitrile treatment of the incubations.
(§3) Samples were analyzed in the MRM mode with a SCIEX API-4000 mass spectrometer (Applied Biosystems, Foster City, Calif.), with a Shimadzu LC-20 AD pump (Shimadzu corporation, Kyoto, JP) and a CTC PAL autosampler (Agilent Technologies, Switzerland). A Phenomenex, Luna, 5 μm, 100 A, 2.00×30 mm HPLC column was used for the separation. The mobile phases were: (A) 0.1% formic acid in water and (B) 0.1% formic acid in acetonitrile. The binary gradient was as follows.
(§4) The mass spectrum parameters were as follows:
(§5) The LC/MS/MS parameters for the analytes were as follows.
(§6) The peak area ratio of the analyte to the internal standard was used to quantify the metabolite. The values of peak area ratios in the presence of test compound were compared to those of maximum or minimum controls and were expressed as % inhibition by interpolating between the maximum and minimum peak area ratios. Incubations with no inhibitor were defined as the maxima.
(§7) The following equation was used to calculate the % inhibition: [1−[(X−Low control)/(High control−Low control)]]*100
(§8) For the IC50 calculation, SigmaPlot was used to plot the mean % inhibition versus the test compound concentrations and for non-linear regression analysis of the data. Depending on the range of data points defining the inhibition curve, the data may have been fit to the 4-parameter logistic equation.

[3] = target: T3, CYP2C19 (Homo sapiens, UniProt P33261); assay: Cocktail assay for CYPs in human liver microsomes: CYP2C19 (mephenytoin 4′-hydroxylation); conditions: human liver microsomes 0.1 mg/mL, 30 μM mephenytoin, 10 min at 37° C., 6 concentrations up to 10 μM; read-out: IC50 (nM) CYP2C19
T3 construct: 0.1 mg/mL protein human liver microsomes (BD Gentest); tissue BD Gentest; host or cells: human liver microsomes
Description: as §1, §2, §3, §4, §5, §6, §7, §8

[4] = target: T4, CYP2D6 (Homo sapiens, UniProt P10635); assay: Cocktail assay for CYPs in human liver microsomes: CYP2D6 (dextromethorphan O-demethylation); conditions: human liver microsomes 0.1 mg/mL, 5 μM dextromethorphan, 10 min at 37° C., 6 concentrations up to 10 μM; read-out: IC50 (nM) CYP2D6
T4 construct: 0.1 mg/mL protein human liver microsomes (BD Gentest); tissue BD Gentest; host or cells: human liver microsomes
Description: as §1, §2, §3, §4, §5, §6, §7, §8

[5] = target: T5, CYP3A4 (Homo sapiens, UniProt P08684); assay: Cocktail assay for CYPs in human liver microsomes: CYP3A4 (midazolam 1′-hydroxylation); conditions: human liver microsomes 0.1 mg/mL, 2 μM midazolam, 10 min at 37° C., 6 concentrations up to 10 μM; read-out: IC50 (nM) CYP3A4
T5 construct: 0.1 mg/mL protein human liver microsomes (BD Gentest); tissue BD Gentest; host or cells: human liver microsomes
T5 sequence (P08684 whole entry): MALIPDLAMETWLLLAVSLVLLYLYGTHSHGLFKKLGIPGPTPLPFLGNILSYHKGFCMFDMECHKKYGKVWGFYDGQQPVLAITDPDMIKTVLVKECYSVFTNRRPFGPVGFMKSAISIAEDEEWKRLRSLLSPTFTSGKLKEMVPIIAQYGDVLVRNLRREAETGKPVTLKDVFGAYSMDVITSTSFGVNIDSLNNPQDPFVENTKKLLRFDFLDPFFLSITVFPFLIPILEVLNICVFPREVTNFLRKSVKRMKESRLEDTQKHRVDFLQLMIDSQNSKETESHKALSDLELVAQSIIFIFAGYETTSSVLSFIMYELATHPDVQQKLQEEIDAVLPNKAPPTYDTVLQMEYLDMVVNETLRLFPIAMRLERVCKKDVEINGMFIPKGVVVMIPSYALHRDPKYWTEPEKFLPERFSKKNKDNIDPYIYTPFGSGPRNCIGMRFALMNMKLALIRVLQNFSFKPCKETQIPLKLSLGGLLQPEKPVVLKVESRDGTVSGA
Description: as §1, §2, §3, §4, §5, §6, §7, §8

T1 sequence (P11712 whole entry): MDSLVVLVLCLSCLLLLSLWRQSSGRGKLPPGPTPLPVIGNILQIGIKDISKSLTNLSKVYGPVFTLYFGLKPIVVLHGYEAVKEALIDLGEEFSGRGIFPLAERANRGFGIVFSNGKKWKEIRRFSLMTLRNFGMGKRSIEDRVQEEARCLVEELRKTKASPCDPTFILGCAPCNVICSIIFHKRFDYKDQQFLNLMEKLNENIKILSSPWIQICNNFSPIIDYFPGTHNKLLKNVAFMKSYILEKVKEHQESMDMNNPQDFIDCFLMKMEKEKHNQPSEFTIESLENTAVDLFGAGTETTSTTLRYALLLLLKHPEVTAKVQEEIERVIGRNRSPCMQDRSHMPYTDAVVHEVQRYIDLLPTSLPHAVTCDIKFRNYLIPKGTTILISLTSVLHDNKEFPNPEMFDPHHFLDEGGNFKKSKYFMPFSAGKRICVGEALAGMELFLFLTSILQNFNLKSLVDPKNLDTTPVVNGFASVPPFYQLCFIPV
T4 sequence (P10635 whole entry): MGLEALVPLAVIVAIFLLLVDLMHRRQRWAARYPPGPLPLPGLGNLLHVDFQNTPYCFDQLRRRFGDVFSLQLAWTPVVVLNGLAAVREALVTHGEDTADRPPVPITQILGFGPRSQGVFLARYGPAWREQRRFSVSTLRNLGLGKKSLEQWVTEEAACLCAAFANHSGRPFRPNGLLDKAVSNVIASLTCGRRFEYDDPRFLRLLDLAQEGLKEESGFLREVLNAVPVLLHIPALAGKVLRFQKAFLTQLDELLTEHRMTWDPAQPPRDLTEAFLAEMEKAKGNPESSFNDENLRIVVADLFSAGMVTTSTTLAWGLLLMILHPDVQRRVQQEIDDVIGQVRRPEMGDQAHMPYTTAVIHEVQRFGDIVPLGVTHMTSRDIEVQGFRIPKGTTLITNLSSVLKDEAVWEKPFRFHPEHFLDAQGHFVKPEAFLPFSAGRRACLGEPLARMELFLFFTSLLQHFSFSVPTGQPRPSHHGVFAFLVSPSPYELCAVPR
T3 sequence (P33261 whole entry): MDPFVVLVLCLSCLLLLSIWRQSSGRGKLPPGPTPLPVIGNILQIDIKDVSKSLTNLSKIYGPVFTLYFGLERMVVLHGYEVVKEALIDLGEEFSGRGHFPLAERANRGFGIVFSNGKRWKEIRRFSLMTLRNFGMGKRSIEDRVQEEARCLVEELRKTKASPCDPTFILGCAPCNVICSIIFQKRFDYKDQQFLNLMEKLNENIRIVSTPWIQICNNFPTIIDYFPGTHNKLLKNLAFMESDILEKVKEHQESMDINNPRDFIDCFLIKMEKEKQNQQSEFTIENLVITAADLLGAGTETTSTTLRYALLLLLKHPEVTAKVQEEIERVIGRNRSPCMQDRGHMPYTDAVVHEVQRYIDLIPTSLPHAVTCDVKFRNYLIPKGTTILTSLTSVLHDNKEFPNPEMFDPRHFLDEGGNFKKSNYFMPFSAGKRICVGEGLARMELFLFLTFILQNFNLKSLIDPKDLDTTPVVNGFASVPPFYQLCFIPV

SMILES | IC50 [1] [nM] | IC50 [2] [nM] | IC50 [3] [nM] | IC50 [4] [nM] | IC50 [5] [nM]
C[C@H](c1ccc(F)cc1)n1cncc1CN1CCN(C(=O)c2ccccn2)C(c2ccccc2)C1 (stereo partly shown) [Compound 53] | 6120 | > 10000 | > 10000 | 9840 | 13
CC1CN(Cc2cncn2[C@H](C)c2ccc(F)cc2)CC(C)N1C(=O)C1(C)CC1 (stereo partly drawn) [Compound 54, (4-((1-((R)-1-(4-fluorophenyl)ethyl)-1H-imidazol-5-yl)methyl)-2,6-dimethylpiperazin-1-yl)(1-methylcyclopropyl) methanone] | 2860 | > 10000 | 3350 | > 10000 | 14
C[C@H](c1ccc(F)cc1)n1cncc1CN1CCN(C(=O)c2ccccc2)C(C(C)(C)C)C1 (stereo partly drawn) [Compound 55, (2-(tert-butyl)-4-((1-((R)-1-(4-fluorophenyl)ethyl)-1H-imidazol-5-yl)methyl)piperazin-1-yl)(phenyl) methanone] | 2970 | > 10000 | 2390 | 8030 | 10
CC1CN(Cc2cncn2C(C)C2CCOCC2)CC(C)N1C(=O)C1(C)CC1 (stereo not shown) [Compound 56, (2,6-dimethyl-4-((1-(1-(tetrahydro-2H-pyran-4-yl)ethyl)-1H-imidazol-5-yl)methyl)piperazin-1-yl)(1-methylcyclopropyl) methanone] | > 10000 | > 10000 | > 10000 | 7160 | 35
C[C@H](c1ccc(F)cc1)n1cncc1CN1CCN(C(=O)C2(C)CC2)C(c2ccc(N(C)C)cc2)C1 (stereo partly drawn) [Compound 57, (2-(4-(dimethylamino)phenyl)-4-((1-((R)-1-(4-fluorophenyl)ethyl)-1H-imidazol-5-yl)methyl)piperazin-1-yl)(1-methylcyclopropyl) methanone] | 2810 | > 10000 | 2640 | 2450 | 5
CC1CN(Cc2cncn2[C@H](C)c2ccc(C#N)cc2)CC(C)N1C(=O)C1CC(F)(F)C1 (stereo partly drawn) [Compound 58, 4-((1R)-1-(5-((4-(3,3-difluorocyclo-butanecarbonyl)-3,5-dimethylpiperazin-1-yl)methyl)-1H-imidazol-1-yl)ethyl)benzonitrile] | 2570 | > 10000 | > 10000 | > 10000 | 7
CC(c1ccccc1-c1ccc(F)cc1)n1cncc1CN1CCN(C(=O)c2ccccc2)CC1 (stereo not shown) [Compound 59, (4-((1-(1-(4′-fluoro-[1,1′-biphenyl]-2-yl)ethyl)-1H-imidazol-5-yl)methyl)piperazin-1-yl)(phenyl) methanone] | 6480 | > 10000 | 3360 | 2210 | 9
CC(=O)N1CCN(Cc2cncn2C(C)c2ccccc2-c2ccc(F)cc2)CC1 (stereo not shown) [Compound 60, 1-(4-((1-(1-(4′-fluoro-[1,1′-biphenyl]-2-yl)ethyl)-1H-imidazol-5-yl)methyl)piperazin-1-yl)ethanone] | > 10000 | > 10000 | > 10000 | 4500 | 23
C[C@H](c1ccc(F)cc1)n1cncc1CN1CCN(Cc2ccccc2)C(=O)C1 [Compound 61, (R)-1-benzyl-4-((1-(1-(4-fluorophenyl)ethyl)-1H-imidazol-5-yl)methyl)piperazin-2-one] | > 10000 | > 10000 | 1620 | 2520 | 23
C[C@H](c1ccc(F)cc1)n1cncc1CN1CCN(Cc2ccccc2Cn2cncn2)C(=O)C1 [Compound 62, (R)-1-(2-((1H-1,2,4-triazol-1-yl)methyl)benzyl)-4-((1-(1-(4-fluorophenyl)ethyl)-1H-imidazol-5-yl)methyl) piperazin-2-one] | 6210 | 6940 | 1140 | 5640 | 43
C[C@H](c1ccc(F)cc1)n1cncc1CN1CCN(Cc2cn3ccccc3n2)C(=O)C1 [Compound 63, (R)-4-((1-(1-(4-fluorophenyl)ethyl)-1H-imidazol-5-yl)methyl)-1-(imidazo[1,2-a]pyridin-2-ylmethyl)piperazin-2-one] | > 10000 | ≥ 10000 | > 10000 | > 10000 | 46
COc1ccc(-c2nc(CN3CCN(Cc4cncn4[C@H](C)c4ccc(F)cc4)CC3=O)no2)cc1 [Compound 64, (R)-4-((1-(1-(4-fluorophenyl)ethyl)-1H-imidazol-5-yl)methyl)-1-((5-(4-methoxyphenyl)-1,2,4-oxadiazol-3-yl)methyl) piperazin-2-one] | 2860 | 3590 | 4520 | 3110 | 43
COc1ccc(CNc2ncc(CN3CCN(Cc4cncn4[C@H](C)c4ccc(F)cc4)CC3=O)s2)c(OC)c1 [Compound 65, (R)-1-((2-((2,4-dimethoxybenzyl)amino)thiazol-5-yl)methyl)-4-((1-(1-(4-fluorophenyl)ethyl)-1H-imidazol-5-yl)methyl)piperazin-2-one] | 8780 | > 10000 | 1340 | 3360 | 10
C[C@H](c1ccc(F)cc1)n1cncc1CN1CCN(Cc2cnc(N(C)C)s2)C(=O)C1 [Compound 66, (R)-1-((2-(dimethylamino)thiazol-5-yl)methyl)-4-((1-(1-(4-fluorophenyl)ethyl)-1H-imidazol-5-yl)methyl) piperazin-2-one] | > 10000 | > 10000 | > 10000 | > 10000 | 43
CNc1ncc(CN2CCN(Cc3cncn3[C@H](C)c3ccc(F)cc3)CC2=O)s1 [Compound 67, (R)-4-((1-(1-(4-fluorophenyl)ethyl)-1H-imidazol-5-yl)methyl)-1-((2-(methylamino)thiazol-5-yl)methyl) piperazin-2-one] | > 10000 | > 10000 | > 10000 | > 10000 | 75
C[C@H](c1ccc(F)cc1)n1cncc1CN1CCN(Cc2cnc(N3CCOCC3)s2)C(=O)C1 [Compound 68, (R)-4-((1-(1-(4-fluorophenyl)ethyl)-1H-imidazol-5-yl)methyl)-1-((2-morpholinothiazol-5-yl)methyl)piperazin-2-one] | > 10000 | > 10000 | > 10000 | > 10000 | 80
C[C@H](c1ccc(F)cc1)n1cncc1CN1CCN(Cc2cnc(N3CCN(C)CC3)s2)C(=O)C1 [Compound 69, (R)-4-((1-(1-(4-fluorophenyl)ethyl)-1H-imidazol-5-yl)methyl)-1-((2-(4-methylpiperazin-1-yl)thiazol-5-yl)methyl) piperazin-2-one] | > 10000 | > 10000 | > 10000 | > 10000 | 56
CCOC(=O)CN1CCN(Cc2cncn2C(C)c2ccccc2-c2ccc(F)cc2)CC1 (stereo not shown) [Compound 70, ethyl 2-(4-((1-(1-(4′-fluoro-[1,1′-biphenyl]-2-yl)ethyl)-1H-imidazol-5-yl)methyl)piperazin-1-yl)acetate] | > 10000 | > 10000 | 5950 | 7680 | 15
CC(c1ccccc1-c1ccc(F)cc1)n1cncc1CN1CCN(CCO)CC1 (stereo not shown) [Compound 71, 2-(4-((1-(1-(4′-fluoro-[1,1′-biphenyl]-2-yl)ethyl)-1H-imidazol-5-yl)methyl)piperazin-1-yl) ethanol] | > 10000 | > 10000 | > 10000 | > 10000 | 37
COCCN1CCN(Cc2cncn2C(C)c2ccccc2-c2ccc(F)cc2)CC1 (stereo not shown) [Compound 72, 1-((1-(1-(4′-fluoro-[1,1′-biphenyl]-2-yl)ethyl)-1H-imidazol-5-yl)methyl)-4-(2-methoxyethyl) piperazine] | > 10000 | > 10000 | > 10000 | 1170 | 14
